# Where two headings read alike, the source gives them in different places.
# How the values were obtained:
# [1] = test system: analytes detected in pathological aqueous samples; test: Analytes in pathological aqueous samples pre-treatment and after intravitreal bevacizumab injection (Table 1); assay type: in vivo
# Description: The markers can be used to determine a course of treatment for the patient, and may be combined in many ways with the therapeutic agent as described herein. In many embodiments, the marker comprises a molecule that is a component of the eye which can diffuse through the porous structure into the reservoir structure. In many embodiments, the marker comprises a large molecule that can diffuse through the porous structure of the implanted device into the reservoir chamber. The therapeutic agent may comprise a large molecule or a small molecule that can diffuse through the porous structure, or combinations of large and small molecules. Work in relation to embodiments indicate that marker molecules having a lower molecular weight may accumulate in the implanted device more rapidly than larger molecular weight marker molecules, and that marker molecules having a molecular weight of no more than about 500 kDa can be used in many embodiments. In many embodiments the molecular weight can be smaller than 500 kDa, for example 100 kDa or less, so that the accumulation rate is increased. The molecular weight values of Table 1 can be combined in many ways to provide ranges of molecular weights of the measured marker. Alternatively or in combination, a plurality of markers of different molecular weight can be used to diagnose and treat the patient. Examples of markers and amounts similar to Table 1 can be used and are shown in Molecular Vision (Mol. Vis. 2010; 16: 2175-2184, Published online 2010 Oct. 27) available on the world wide web (at the address http://www.ncbi.nlm.nih.gov/pmc/articles/PMC2994336/table/t1/)
# A ratio of pre-treatment mean concentration to post-treatment mean concentration is shown for the markers of Table 1. This ratio can be used to determine markers suitable to indicate efficacy of treatment and markers suitable for use as housekeeping genes. The markers having a ratio […] about 1.2, for example, can be suitable for use as housekeeping markers. Markers having a ratio above about 1.2 may be suitable for use as efficacy markers. In many embodiments, the one or more markers from the therapeutic device correspond to a pre/post ratio above of about 1.5, for example. Alternatively or in combination, the pre/post ratio can be less than 0.8, for example, and the marker risk may correspond to under-expression of protective factors, for example. The marker profile to diagnose the patient from a sample of the implanted device may comprise a plurality of up-regulation of pathogenic factor markers corresponding to a ratio above about 1.2 and a plurality of under-expression of protective factor markers corresponding to a ratio below about 0.8, for example.
# [2] = Diffusion model of release from the therapeutic device reservoir through the porous structure
# Description: The release rate of therapeutic agent 110 through a porous body, such as a sintered porous metal structure or a porous glass structure, may be described by diffusion of the therapeutic agent 110 within the porous structure 150 with the channel parameter, and with an effective diffusion coefficient equal to the diffusion coefficient of the therapeutic agent 110 in the liquid that fills the reservoir multiplied by the Porosity and a Channel Parameter of the porous body: Release Rate=(DP/F)A(cR−cV)/L, where: cR=Concentration in reservoir cV=Concentration outside of the reservoir or in the vitreous D=Diffusion coefficient of the therapeutic agent in the reservoir solution P=Porosity of porous structure F=Channel parameter that may correspond to a tortuosity parameter of channels of porous structure A=Area of porous structure L=Thickness (length) of porous structure Cumulative Release=1−cR/cR0=1−exp((−DPA/FLVR)t), where t=time, Vr=reservoir volume
# A model can be derived to describe the release rate as a function of time by relating the change of concentration in the reservoir 140 to the release rate described above. This model assumes a solution of therapeutic agent 110 where the concentration in the reservoir 140 is uniform. In addition, the concentration in the receiving fluid or vitreous is considered negligible (cV=0). Solving the differential equation and rearrangement yields the following equations describing the concentration in the reservoir as a function of time, t, and volume of the reservoir, VR, for release of a therapeutic agent 110 from a solution in a reservoir though a porous structure 150. cR=cR0 exp((−DPA/FLVR)t) and Cumulative Release=1−cR/cR0
# The molecular weight of the stabilizer can be provided in 1k Dalton increments from about 1k Dalton to about 200k Daltons and provide in a Table having about 200 rows similar to Table 2. The parameters of Table 2 determined such as the half-life in the device, the equivalent volume, the equivalent diameter, and % in the device at the half-life of the therapeutic agent 110. The table may comprise a row for each molecular weight in 1k Dalton increments, and the % of stabilizer in the device compared with the therapeutic agent 110. The table may include columns for two half-lives of the therapeutic agent, three half-lives of the therapeutic agent, four half-lives of the therapeutic agent, and the corresponding percentage of stabilizer remaining in the device.
# FIG. 104 and Table 3 show concentrations of therapeutic agent, stabilizer and the ratio of stabilizer to therapeutic agent in accordance with an exemplary embodiment, for example. The concentrations and rations can be determined by a person of ordinary skill in the art based on the teachings described herein. […] Additional concentrations of the therapeutic agent can be used, for example greater amounts of therapeutic agent.
# [3] = Diffusion coefficients and equivalent size estimated from molecular weight; assay type: physicochemical; details: for Diff Coeff: Table 2, 37 C, estimated from molecular weight
# Description: If the reservoir solution is aqueous or has a viscosity similar to water, the value for the diffusion coefficient of the therapeutic agent (TA) in water at the temperature of interest may be used. […] (Molokhia et al, Exp Eye Res 2008): DTA,37C=DBSA,20C(η20C/η37C)(MWBSA/MWTA)^1/3 where MW refers to the molecular weight of either BSA or the test compound and η is the viscosity of water.
# The diffusion constant of the stabilizer can be determined, for example, based on an estimate of hydrodynamic radius corresponding to the cube root of the molecular weight as described herein.
# The diffusion coefficients of Table 2 can be determined based on weight for molecular weights up to about 2.5 M Daltons, and based on size above about 2.5 M Daltons.
# [4] = vitreous, monkey; cited from earlier work
# [5] = vitreous, rabbit; cited from earlier work
# [6] = vitreous, human eye; cited from earlier work
# [7] = aqueous samples after intravitreal bevacizumab injection
# [8] = aqueous samples, intravitreal bevacizumab injection
# [9] = assumes unit density, per molecule
substance,measurement,setting,value
Bevacizumab,Alpha-1 Antitrypsin Post-treatment mean,[1]; [7],0.0025 mg/mL
same,Alpha-Fetoprotein Post-treatment mean,[1]; [7],0.2790 ng/mL
same,Apolipoprotein A1 Post-treatment mean,[1]; [7],0.0004 mg/mL
same,Apolipoprotein CIII Post-treatment mean,[1]; [7],0.0259 µg/mL
same,Apolipoprotein H Post-treatment mean,[1]; [7],0.6400 µg/mL
same,Beta-2 Microglobulin Post-treatment mean,[1]; [7],0.3026 µg/mL
same,C Reactive Protein Post-treatment mean,[1]; [7],0.0477 µg/mL
same,CD40 Post-treatment mean,[1]; [7],0.0510 ng/mL
same,Cancer Antigen 19-9 Post-treatment mean,[1]; [7],0.2042 U/ml
same,Cancer Antigen 125 Post-treatment mean,[1]; [7],1.7225 U/ml
same,Complement 3 Post-treatment mean,[1]; [7],0.0014 mg/mL
same,Endothelin-1 Post-treatment mean,[1]; [7],5.2375 pg/mL
same,Eotaxin Post-treatment mean,[1]; [7],13.5813 pg/mL
same,Erythropoietin Post-treatment mean,[1]; [7],111.6125 pg/mL
same,FGF basic Post-treatment mean,[1]; [7],30.8900 pg/mL
same,Fibrinogen Post-treatment mean,[1]; [7],0.0005 mg/mL
same,G-CSF Post-treatment mean,[1]; [7],3.6748 pg/mL
same,Glutathione S-Transferase Post-treatment mean,[1]; [7],0.1544 ng/mL
same,Haptoglobin Post-treatment mean,[1]; [7],0.0004 mg/mL
same,ICAM-1 Post-treatment mean,[1]; [7],0.6971 ng/mL
same,IGF-1 Post-treatment mean,[1]; [7],1.4285 ng/mL
same,IL-6 Post-treatment mean,[1]; [7],15.2016 pg/mL
same,IL-7 Post-treatment mean,[1]; [7],12.3125 pg/mL
same,IL-8 Post-treatment mean,[1]; [7],14.9900 pg/mL
same,IgA Post-treatment mean,[1]; [7],0.0015 mg/mL
same,IgM Post-treatment mean,[1]; [7],0.0009 mg/mL
same,Leptin Post-treatment mean,[1]; [7],0.2131 ng/mL
same,MCP-1 Post-treatment mean,[1]; [7],438.3750 pg/mL
same,MIP-1alpha Post-treatment mean,[1]; [7],9.4175 pg/mL
same,MIP-1beta Post-treatment mean,[1]; [7],21.7988 pg/mL
same,MMP-3 Post-treatment mean,[1]; [7],0.6159 ng/mL
same,"Prostate Specific Antigen, Free Post-treatment mean",[1]; [7],0.0092 ng/mL
same,Prostatic Acid Phosphatase Post-treatment mean,[1]; [7],0.0095 ng/mL
same,SGOT Post-treatment mean,[1]; [7],1.3488 µg/mL
same,SHBG Post-treatment mean,[1]; [7],0.2250 nmol/L
same,Serum Amyloid P Post-treatment mean,[1]; [7],0.0134 µg/mL
same,Stem Cell Factor Post-treatment mean,[1]; [7],19.4375 pg/mL
same,TIMP-1 Post-treatment mean,[1]; [7],22.3825 ng/mL
same,Thyroxine Binding Globulin Post-treatment mean,[1]; [7],0.3876 µg/mL
same,Tissue Factor Post-treatment mean,[1]; [7],0.3631 ng/mL
same,VEGF Post-treatment mean,[1]; [7],484.1250 pg/mL
same,Alpha-1 Antitrypsin Pre-treatment mean/Post-treatment mean,[1]; [8],0.9
same,Alpha-Fetoprotein Pre-treatment mean/Post-treatment mean,[1]; [8],0.9
same,Apolipoprotein A1 Pre-treatment mean/Post-treatment mean,[1]; [8],1.8
same,Apolipoprotein CIII Pre-treatment mean/Post-treatment mean,[1]; [8],1.6
same,Apolipoprotein H Pre-treatment mean/Post-treatment mean,[1]; [8],1.3
same,Beta-2 Microglobulin Pre-treatment mean/Post-treatment mean,[1]; [8],1.4
same,C Reactive Protein Pre-treatment mean/Post-treatment mean,[1]; [8],2.3
same,CD40 Pre-treatment mean/Post-treatment mean,[1]; [8],1.3
same,Cancer Antigen 19-9 Pre-treatment mean/Post-treatment mean,[1]; [8],1.4
same,Cancer Antigen 125 Pre-treatment mean/Post-treatment mean,[1]; [8],1.0
same,Complement 3 Pre-treatment mean/Post-treatment mean,[1]; [8],0.9
same,Endothelin-1 Pre-treatment mean/Post-treatment mean,[1]; [8],1.0
same,Eotaxin Pre-treatment mean/Post-treatment mean,[1]; [8],1.3
same,Erythropoietin Pre-treatment mean/Post-treatment mean,[1]; [8],1.1
same,FGF basic Pre-treatment mean/Post-treatment mean,[1]; [8],1.7
same,Fibrinogen Pre-treatment mean/Post-treatment mean,[1]; [8],2.2
same,G-CSF Pre-treatment mean/Post-treatment mean,[1]; [8],4.7
same,Glutathione S-Transferase Pre-treatment mean/Post-treatment mean,[1]; [8],0.9
same,Haptoglobin Pre-treatment mean/Post-treatment mean,[1]; [8],1.3
same,ICAM-1 Pre-treatment mean/Post-treatment mean,[1]; [8],1.1
same,IGF-1 Pre-treatment mean/Post-treatment mean,[1]; [8],1.0
same,IL-6 Pre-treatment mean/Post-treatment mean,[1]; [8],7.9
same,IL-7 Pre-treatment mean/Post-treatment mean,[1]; [8],0.9
same,IL-8 Pre-treatment mean/Post-treatment mean,[1]; [8],1.5
same,IgA Pre-treatment mean/Post-treatment mean,[1]; [8],0.9
same,IgM Pre-treatment mean/Post-treatment mean,[1]; [8],1.4
same,Leptin Pre-treatment mean/Post-treatment mean,[1]; [8],1.8
same,MCP-1 Pre-treatment mean/Post-treatment mean,[1]; [8],1.5
same,MIP-1alpha Pre-treatment mean/Post-treatment mean,[1]; [8],1.1
same,MIP-1beta Pre-treatment mean/Post-treatment mean,[1]; [8],1.1
same,MMP-3 Pre-treatment mean/Post-treatment mean,[1]; [8],1.0
same,"Prostate Specific Antigen, Free Pre-treatment mean/Post-treatment mean",[1]; [8],1.8
same,Prostatic Acid Phosphatase Pre-treatment mean/Post-treatment mean,[1]; [8],2.7
same,SGOT Pre-treatment mean/Post-treatment mean,[1]; [8],1.3
same,SHBG Pre-treatment mean/Post-treatment mean,[1]; [8],2.3
same,Serum Amyloid P Pre-treatment mean/Post-treatment mean,[1]; [8],2.1
same,Stem Cell Factor Pre-treatment mean/Post-treatment mean,[1]; [8],1.0
same,TIMP-1 Pre-treatment mean/Post-treatment mean,[1]; [8],1.4
same,Thyroid Stimulating Hormone Pre-treatment mean/Post-treatment mean,[1]; [8],1.6
same,Thyroxine Binding Globulin Pre-treatment mean/Post-treatment mean,[1]; [8],1.6
same,Tissue Factor Pre-treatment mean/Post-treatment mean,[1]; [8],1.0
same,VEGF Pre-treatment mean/Post-treatment mean,[1]; [8],1.4
same,Device Half-life relative to Ranibiz.,[2],1.46
Polysorbate 20,Diff Coeff,[3],3.4E−06 cm^2/s
same,Diff Coeff,[3]; listed as polysorbate 20,~3.4E-6 cm^2/s
same,Equiv volume,[3]; [9],2.0 nm^3
same,equivalent diameter,[3]; [9],~1.6 nm
same,D/(Ran D),[3]; diffusion relative to Ranibizumab,3.39
same,relative half-life in device 100,[2]; % of ranibizumab,about 29%
same,relative amount remaining in therapeutic device 100,[2]; at the half-life of ranibizumab,about 9.5%
Ranibizumab,half-life,[4],approximately 3 days
same,half-life,[5],approximately 3 days
same,half-life,[6],220 h
same,Device Half-life relative to Ranibiz.,[2],1.00

# — US10398592B2, “Diagnostic methods and apparatus” (ForSight Vision4, Inc., priority 2011, dated 2019)
